{"source": "patent US6846801B1", "about": "“Systemic administration of a therapeutic preparation” (AstraZeneca AB, priority 1993, dated 2005)", "key": {"rats": {"system": "rats", "test": "Rat model: powder inhaled, blood glucose compared with insulin formulations without enhancer; as to Effect: key: +: significant decrease in blood glucose level; (+): moderate decrease in blood glucose level; −: no or very small decrease in blood glucose level", "type": "in vivo", "conditions": "for improvement in absorption of insulin: in vivo model", "method": "Each of the compounds listed in Table III was tested for its ability to enhance uptake of insulin, and thus affect blood glucose levels, in a rat model. Various forms of insulin were employed: recombinant or semisynthetic human or bovine. Each formulation was prepared as above, drying and processing the insulin/enhancer or insulin/enhancer/lactose solution to produce an inhalable powder.\nThe powder was administered to rats by inhalation, and the blood glucose levels of the rats were subsequently monitored. These levels were compared to the corresponding values obtained from rats which had inhaled insulin formulations without enhancer."}, "[1]": {"system": "CaCo-2 epithelial cell monolayer", "test": "In vitro transport of insulin and markers across CaCo-2 epithelial cell monolayer", "type": "in vitro ADME", "conditions": "60 min, 37° C.", "source_text": "A standard in vitro assay utilizing an epithelial cell line, CaCo-2 (available through the American Type Culture Collection (ATCC), Rockville, Md., USA), has been developed to assess the ability of various enhancer compounds to promote transport of insulin and other markers across an epithelial cell monolayer, as a model for the epithelial cell layer which functions in the lung to separate the alveolus from the pulmonary blood supply. In this assay, the enhancer and insulin or other marker are dissolved in aqueous solution at various proportions and/or concentrations, and applied to the apical side of the cell monolayer. After 60 min incubation at 37° C. and 95% RH (relative humidity), the amount of the marker on the basolateral side of the cells is determined: for example, by use of a radioactively labelled marker. […] This is true even when insulin is added to the enhancer/mannitol mixture (1:3 sodium caprate:insulin, by weight) (FIG. 9). This concentration of sodium caprate (16 mM) was also found to promote absorption of insulin across the cell monolayer. The amount of insulin which passed across the monolayer doubled in the presence of 16 mM sodium caprate, compared to the amount in the absence of any enhancer. […]"}, "[2]": {"conditions": "rats, inhaled powder, Enhancer:Insulin:lactose 2:4:94"}, "[3]": {"conditions": "rats, inhaled powder, Enhancer:Insulin:lactose 4:4:92"}, "[4]": {"conditions": "tested as enhancer in the method of the invention, animal (rat) model"}, "[5]": {"conditions": "rats, inhaled powder, Enhancer:Insulin:lactose 25:75:0"}}, "data": [{"compound": "CCCCCCCCCC(=O)OC[C@H](COP(=O)([O-])OCC[N+](C)(C)C)OC(=O)CCCCCCCCC", "note": "[Didecanoylphospatidylcholine]", "values": [{"measurement": "Effect", "setting": "rats; rats, inhaled powder, Enhancer:Insulin:lactose 4:4:94", "result": "−"}]}, {"compound": "CCCCCCCC(=O)OCC(COP(=O)([O-])OCC[N+](C)(C)C)OC(=O)CCCCCCC", "note": "(stereo not shown) [Dioctanoylphosphatidylcholine]", "values": [{"measurement": "Effect", "setting": "rats; [2]", "result": "(+)"}]}, {"compound": "CCCCCCCCOC1O[C@H](CO)[C@@H](O)[C@H](O)[C@H]1O", "note": "(stereo partly shown) [Octylglucopyranoside]", "values": [{"measurement": "performance as enhancer of insulin absorption in the lung (in words)", "setting": "rats; rat, in vivo", "result": "some absorption enhancing properties"}, {"measurement": "Effect", "setting": "rats; [3]", "result": "(+)"}]}, {"compound": "CCCCCCCCCC(=O)[O-].[K+]", "note": "[Potassium caprate]", "values": [{"measurement": "Effect", "setting": "rats; rats, inhaled powder, Enhancer:Insulin:lactose 27:73:0", "result": "+"}, {"measurement": "performance as enhancer of insulin absorption in the lung (in words)", "setting": "rats; [4]", "result": "effective"}]}, {"compound": "CCCCCCCC/C=C\\CCCCCCCC(=O)[O-].[K+]", "note": "[Potassium oleate]", "values": [{"measurement": "Effect", "setting": "rats; [3]", "result": "+"}]}, {"compound": "CCCCCCCCCC(=O)[O-].[Na+]", "note": "[Sodium caprate]", "values": [{"measurement": "amount of insulin which passed across the monolayer, compared to absence of any enhancer", "setting": "[1]; 16 mM sodium caprate, apical to basolateral", "result": "doubled"}, {"measurement": "amount of marker (mannitol) which appears on the basolateral side", "setting": "[1]; at least up to 16 mM sodium caprate, FIG. 8", "result": "dependent upon the concentration of enhancer used"}, {"measurement": "improvement in absorption of insulin", "setting": "rats; insulin/sodium caprate 50/50 w/w (50% sodium caprate)", "result": "Significant improvement"}, {"measurement": "improvement in absorption of insulin", "setting": "rats; insulin/sodium caprate 75/25 w/w (25% sodium caprate)", "result": "Significant improvement"}, {"measurement": "improvement in absorption of insulin", "setting": "rats; insulin/sodium caprate 82.5/17.5 w/w (17.5% sodium caprate)", "result": "intermediate"}, {"measurement": "improvement in absorption of insulin", "setting": "rats; insulin/sodium caprate 90/10 w/w (10% sodium caprate)", "result": "poor improvement"}, {"measurement": "Effect", "setting": "rats; [3]", "result": "+"}, {"measurement": "Effect", "setting": "rats; rats, inhaled powder, Enhancer:Insulin:lactose 10:90:0", "result": "(+)"}, {"measurement": "Effect", "setting": "rats; rats, inhaled powder, Enhancer:Insulin:lactose 17.5:82.5:0", "result": "(+)"}, {"measurement": "Effect", "setting": "rats; [5]", "result": "+"}, {"measurement": "performance as enhancer of insulin absorption in the lung (in words)", "setting": "rats; [4]", "result": "perform well"}]}, {"compound": "CCCCCCCC(=O)[O-].[Na+]", "note": "[Sodium caprylate]", "values": [{"measurement": "Effect", "setting": "rats; [5]", "result": "−"}]}, {"compound": "C[C@H](CCC(=O)NCC(=O)[O-])[C@H]1CC[C@H]2[C@@H]3[C@H](O)C[C@@H]4C[C@H](O)CC[C@]4(C)[C@H]3C[C@H](O)[C@]12C.[Na+]", "note": "[Sodium glycocholate]", "values": [{"measurement": "performance as enhancer of insulin absorption in the lung (in words)", "setting": "rats; rat, in vivo", "result": "effectively enhance insulin absorption in the lung"}, {"measurement": "Effect", "setting": "rats; [3]", "result": "+"}]}, {"compound": "CCCCCCCCCCCC(=O)[O-].[Na+]", "note": "[Sodium laurate]", "values": [{"measurement": "Effect", "setting": "rats; [5]", "result": "(+)"}, {"measurement": "performance as enhancer of insulin absorption in the lung (in words)", "setting": "rats; [4]", "result": "perform well"}]}, {"compound": "CCCCCCCCCCCCCC(=O)[O-].[Na+]", "note": "[Sodium myristate]", "values": [{"measurement": "Effect", "setting": "rats; rats, inhaled powder, Enhancer:Insulin:lactose 30:70:0", "result": "+"}, {"measurement": "performance as enhancer of insulin absorption in the lung (in words)", "setting": "rats; [4]", "result": "perform well"}]}, {"compound": "C[C@H](CCC(=O)NCCS(=O)(=O)O)[C@H]1CC[C@H]2[C@@H]3[C@H](O)C[C@@H]4C[C@H](O)CC[C@]4(C)[C@H]3C[C@H](O)[C@]12C", "note": "[Sodium taurocholate]", "values": [{"measurement": "Effect", "setting": "rats; rat, in vivo", "result": "+"}, {"measurement": "performance as enhancer of insulin absorption in the lung (in words)", "setting": "rats; rat, in vivo", "result": "effectively enhance insulin absorption in the lung"}]}, {"compound": "CC(=O)OC1CC2(C)C(CC(O)C3C4(C)CCC(O)C(C)C4CCC32C)C1=C(CCCC(C)C)C(=O)NCCS(=O)(=O)O", "note": "(stereo not shown) [Sodium taurodihydrofusidate]", "values": [{"measurement": "performance as enhancer of insulin absorption in the lung (in words)", "setting": "rats; rat, in vivo", "result": "effectively enhance insulin absorption in the lung"}, {"measurement": "Effect", "setting": "rats; [2]", "result": "+"}]}, {"compound": "C[C@H](CCC(=O)[O-])[C@H]1CC[C@H]2[C@@H]3[C@@H](O)C[C@@H]4C[C@H](O)CC[C@]4(C)[C@H]3CC[C@]12C.[Na+]", "note": "[Sodium ursodeoxycholate]", "values": [{"measurement": "performance as enhancer of insulin absorption in the lung (in words)", "setting": "rats; rat, in vivo", "result": "effectively enhance insulin absorption in the lung"}, {"measurement": "Effect", "setting": "rats; [3]", "result": "+"}]}, {"compound": "Dimethyl-β-cyclodextrin", "values": [{"measurement": "performance as enhancer of insulin absorption in the lung (in words)", "setting": "rats; rat, in vivo", "result": "absorption enhancing effect"}, {"measurement": "Effect", "setting": "rats; rats, inhaled powder, Enhancer:Insulin:lactose 75:25:0", "result": "+"}]}, {"compound": "Lysine caprate", "values": [{"measurement": "Effect", "setting": "rats; rats, inhaled powder, Enhancer:Insulin:lactose 35:65:0", "result": "+"}, {"measurement": "performance as enhancer of insulin absorption in the lung (in words)", "setting": "rats; [4]", "result": "effective"}]}, {"compound": "Lysophosphatidylcholine", "values": [{"measurement": "Effect", "setting": "rats; [3]", "result": "+"}, {"measurement": "performance as enhancer of insulin absorption in the lung (in words)", "setting": "rats; [4]", "result": "effective enhancer"}]}]}
